Patent US8436039B2, “Inhibitors of the ATB(0,+) transporter and uses thereof” (Georgia Health Sciences University Research Institute, Inc., priority 2008, dated 2013)

What was measured:
[1] = biological target: T1, mouse ATB^0,+ (Mus musculus, UniProt Q9JMA9); assay: Substrate-induced inward currents in X. laevis oocytes expressing mouse ATB^0,+ (two-microelectrode voltage clamp); assay type: cell-based; conditions: for inward currents induced in ATB^0,+-expressing oocytes: 2.5 mM; for inward currents induced in ATB^0,+-expressing oocytes / Michaelis constant (K0.5) of substrate-induced currents: voltage clamp, NaCl; for Michaelis constant (K0.5) of substrate-induced currents: saturation kinetics
T1 sequence (Q9JMA9 1-638): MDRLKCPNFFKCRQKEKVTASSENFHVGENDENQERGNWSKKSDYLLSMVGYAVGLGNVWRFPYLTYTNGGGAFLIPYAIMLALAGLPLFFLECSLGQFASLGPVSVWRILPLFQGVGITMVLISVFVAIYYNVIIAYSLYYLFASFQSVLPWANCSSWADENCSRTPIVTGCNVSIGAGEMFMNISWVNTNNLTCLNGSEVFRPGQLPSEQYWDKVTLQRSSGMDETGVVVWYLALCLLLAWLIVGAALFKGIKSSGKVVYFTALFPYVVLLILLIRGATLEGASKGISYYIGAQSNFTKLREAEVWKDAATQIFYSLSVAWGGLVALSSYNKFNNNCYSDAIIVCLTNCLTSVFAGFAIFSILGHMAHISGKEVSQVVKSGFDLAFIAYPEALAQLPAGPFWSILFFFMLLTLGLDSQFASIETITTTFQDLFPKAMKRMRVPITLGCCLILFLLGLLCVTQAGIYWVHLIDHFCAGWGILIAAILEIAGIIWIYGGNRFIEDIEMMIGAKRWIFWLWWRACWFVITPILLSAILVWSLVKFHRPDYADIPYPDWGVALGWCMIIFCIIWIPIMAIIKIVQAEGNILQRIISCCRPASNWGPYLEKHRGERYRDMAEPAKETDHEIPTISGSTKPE
Experimental: Capped cRNA from the cloned mouse or human ATB^0,+ cDNA was synthesized using the mMESSAGE mMACHTNE kit (Ambion, Austin, Tex., U.S.A.). Mature oocytes (stage IV or V) from X. laevis were injected with 50 ng of cRNA. Uninjected oocytes served as controls. The oocytes were used for electrophysiological studies 3-6 days after cRNA injection. Electrophysiological studies were performed by the two-microelectrode voltage-clamp method (Nakanishi et al., 2001, J. Physiol. 532, 297-304). Oocytes were superfused with an NaCl-containing buffer (100 mM NaCl, 2 mM KCl, 1 mM MgCl2, 1 mM CaCl2, 3 mM Hepes, 3 mM Mes and 3 mM Tris, pH 7.5), followed by the same buffer containing tryptophan derivatives. The membrane potential was clamped at −50 mV. The differences between the steady-state currents measured in the presence and absence of substrates were considered as the substrate-induced currents. In the analysis of the saturation kinetics of substrate-induced currents, the kinetic parameter K0.5 (i.e. substrate concentration necessary for induction of half-maximal current) was calculated by fitting the values of the substrate-induced currents to the Michaelis-Menten equation. The Na^+ and Cl^− activation kinetics of substrate-induced currents were analysed by measuring the substrate-specific currents in the presence of increasing concentrations of Na^+ (concentration of Cl^− kept constant at 100 mM) or in the presence of increasing concentrations of Cl^− (concentration of Na^+ kept constant at 100 mM). In these experiments, the composition of the superfusion buffer was modified to contain 2 mM potassium gluconate, 1 mM MgSO4 and 1 mM calcium gluconate in place of KCl, MgCl2 and CaCl2 respectively. The data from these experiments were analysed by the Hill equation to determine the Hill coefficient (h; number of Na^+ and Cl^− ions involved in the activation process). The kinetic parameters were determined by using the commercially available computer program Sigma Plot, version 6.0 (SPSS, Chicago, Ill., U.S.A.). Uninjected oocytes were used to determine the currents induced by tryptophan derivatives due to entry via transporters that may be constitutively expressed in the oocytes. At a concentration of 2.5 mM, the currents induced by these compounds were in the range of 0-3 nA in uninjected oocytes. These currents were less than 2% of the corresponding currents induced in ATB^0,+ cRNA-injected oocytes. Therefore the endogenous currents associated with the constitutively expressed transporters were not considered in the analysis of kinetic parameters of ATB^0,+ transport activity.
The above studies with the mammalian cell expression system have focused on the interaction of 1-methyltryptophan and other tryptophan derivatives with ATB^0,+ by examining the effects of these compounds on the transporter-mediated glycine uptake. These studies have shown convincingly that 1-methyltryptophan interacts with ATB^0,+, with the L-isomer having much higher affinity for the transporter than the D-isomer. However, these studies have not shown whether or not 1-methyltryptophan is actually a transportable substrate for ATB^0,+. It is possible that 1-methyltryptophan inhibits ATB^0,+-mediated glycine uptake simply by blocking the interaction of glycine with the substrate-binding site of the transporter, rather than by actually competing with glycine for the transport process. […] We wanted to know whether 1-methyltryptophan can actually be transported by ATB^0,+. For this, we used the X. laevis oocyte expression system. Since the transport process mediated by ATB^0,+ is electrogenic, exposure of ATB^0,+-expressing oocytes to transportable substrates will induce an inward current in an Na^+- and Cl^−-dependent manner. Exposure of the same oocytes to blockers will interfere with currents induced by transportable substrates, but will not induce currents by themselves. […]

[2] = biological target: T1, mouse ATB^0,+; assay: Inhibition of ATB^0,+-mediated glycine uptake in HRPE cells expressing cloned mouse ATB^0,+; assay type: cell-based; conditions: for inhibition of ATB^0,+-specific glycine uptake: glycine 10 μM, inhibitor 1 mM, 30 min, NaCl, HRPE cells
[3] = 1 mM substrate, Cl^- fixed at 100 mM
[4] = 1 mM substrate, Na^+ fixed at 100 mM

Compound: Cn1cc(CC(N)C(=O)O)c2ccccc21 (racemic) [1-methyl-DL-tryptophan]
- inward currents induced in ATB^0,+-expressing oocytes [1]: induced marked currents
- inhibition of ATB^0,+-specific glycine uptake [2]: inhibited

Compound: CC(N)(Cc1c[nH]c2ccccc12)C(=O)O (racemic) [α-methyl-DL-tryptophan]
- inward currents induced in ATB^0,+-expressing oocytes [1]: failed to induce currents
- inhibition of ATB^0,+-specific glycine uptake [2]: inhibited

Compound: Cn1cc(C[C@@H](N)C(=O)O)c2ccccc21 [1-methyl-D-tryptophan]
- Michaelis constant (K0.5) of substrate-induced currents [1]: 462 ± 78 µM
- IC50 [2]: 780 ± 225 µM

Compound: Cn1cc(C[C@H](N)C(=O)O)c2ccccc21 [1-methyl-L-tryptophan]
- Hill coefficient (h), Na^+-activation kinetics of induced currents [1, 3]: 1.9±0.2
- Michaelis constant (K0.5) for Na^+ [1, 3]: 27 ± 2 mM
- Hill coefficient, Cl^- -activation kinetics of induced currents [1, 4]: 1.2±0.2
- Michaelis constant for Cl^- [1, 4]: 2.1 ± 0.3 mM
- Michaelis constant (K0.5) of substrate-induced currents [1]: 93 ± 16 µM
- IC50 [2]: 23 ± 5 µM
- potency of L-isomer relative to D-isomer as inhibitor of ATB^0,+-mediated glycine uptake ([2]; 1-methyl-L-tryptophan versus 1-methyl-D-tryptophan): at least 35 fold
